Patent publication US20120309699A1, “COMPOUNDS HAVING ANTI-INFLAMMATORY ACTIVITY” (Consejo Superior de Investigaciones Cientificas (CSIC), priority 2009, published 2012)

Tests used:
[1] = system: enterobacteria; assay: Microbiota counts in feces: enterobacteria; assay type: in vivo, mice; details: after administration of DSS; HED 10 mg
Protocol: (§1) A model for intestinal inflammation based on the administration of DSS (sodium dextran sulfate) to C57BL/6 mice was used. At the present time there is no consensus about which overall is the best model for experimental colitis. The DSS model has been widely used because it has clinical, morphological and analytical characteristics which up to a point are similar to those specific to patients with ulcerative colitis or Crohn's disease.
The in vivo inflammation test was carried out using duplicates separated by a number of months. In each test each group of animals (n=8) was fed a standard diet supplemented with 2.3 mg/day/kg (animal weight) of each of the compounds, depending upon the group. This dose assumes the ingestion of 0.05 mg/day (50 μg/day) per mouse (having a mean weight of 22 grams). This dose extrapolated to a human being is equivalent to 10 mg in an adult weighing 70 kg; using the formula HED (human equivalent dose)=animal dose in mg/kg×(animal weight kg/human weight in kg)^0.33. […]
• Monitoring of weight, food and drink ingestion. The mice in all groups were individually monitored, with weight, quantity of food ingested and water drunk each day being monitored throughout the experimental test. • Blood and water in feces. The water content of feces, as an indication of diarrhea, was evaluated using the difference in weight following evaporation in a stove. Blood was measured using reactive strips based on the guaiacol-peroxidase reaction (HealthCare Diagnosis Inc.). […] The reaction was measured using a scale from 0 (negative result) to 4 (most intense color change). • Length of colon. After sacrifice the colon was obtained from each mouse, extended and measured. […] This was evaluated by spectrophotometry at 460 nm using O-dianisidine reagent and hydrogen peroxide. The change in absorbance at 460 nm was monitored over 10 minutes in a V-630 spectrophotometer (Jasco, Tokyo, Japan). […] Levels of PGE2 were measured in colonic mucosa homogenates using an immunoenzyme method using a Cayman Chem. kit (USA). • “Antibody array”. […] The signal was detected by chemoluminescence. […]

[2] = system: Prostaglandin E2; assay: Prostaglandins in colonic mucosa (DSS model); assay type: in vivo, mice; details: after DSS; HED 10 mg
Protocol: as §1
The in vivo inflammation test was carried out using duplicates separated by a number of months. In each test each group of animals (n=8) was fed a standard diet supplemented with 2.3 mg/day/kg (animal weight) of each of the compounds, depending upon the group. […]
• Monitoring of weight, food and drink ingestion. The mice in all groups were individually monitored, with weight, quantity of food ingested and water drunk each day being monitored throughout the experimental test. • Blood and water in feces. The water content of feces, as an indication of diarrhea, was evaluated using the difference in weight following evaporation in a stove. Blood was measured using reactive strips based on the guaiacol-peroxidase reaction (HealthCare Diagnosis Inc.). […] The reaction was measured using a scale from 0 (negative result) to 4 (most intense color change). • Length of colon. After sacrifice the colon was obtained from each mouse, extended and measured. […]

[3] = system: Salmonella; assay: Adhesion of Salmonella to Caco-2 cells; assay type: cell-based, human; details: Caco-2, 25 μM/well; in comparison with resveratrol and the other derivatives
Protocol: We used two cell models for colon cancer to evaluate the anti-adhesion capacity of compounds derived from resveratrol against pathogenic bacteria in food: Caco-2 (a model frequently used to measure the adhesion of microorganisms) and HT-29 (a model frequently used to measure immune response to infections by enteropathogens). Caco-2 and HT-29 cells were grown in EMEM and DMEM respectively, for which 24 well plates were used at 37° C., 5% CO2, 95% air until a single layer of confluent epithelium formed (cell concentration per well 2×10^5 and 6×10^5 respectively). Pathogenic bacteria (E. coli O157, Salmonella and Listeria monocytogenes Scott A) were placed in contact with the various compounds derived from resveratrol for 1 hour and subsequently the bacteria together with the different compounds in a concentration of 25 μM/well were inoculated on the cell cultures, incubating the plates for 2 hours at 37° C., 5% CO2, 95% air. The plates were then washed 3 times with 1 ml of sterile PBS and 1 ml of distilled water with 20% of glycerol was added, and they were frozen at −70° C. to lyse the epithelial cells. […] Concentrations of the various derivatives tested were detected in the digestive tracts of experimental animals and therefore the test lay within the range of physiologically achievable concentrations.

| Compound | Enterobacteria count in feces [1] | Production of prostaglandins (PGE2) in colonic mucosa [2] | Anti-adhesion efficacy in respect of Salmonella [3] |
| --- | --- | --- | --- |
| CCCC(=O)OCC1OC(Oc2cc(O)cc(/C=C/c3ccc(O)cc3)c2)C(O)C(O)C1O [BUT, trans-resveratrol-3-O-(6′-O-butanoyl)-β-D-glucopyranoside] | clear reduction | best results | greater anti-adhesion efficacy |
| CCCCCCCC(=O)OCC1OC(Oc2cc(O)cc(/C=C/c3ccc(O)cc3)c2)C(O)C(O)C1O [OCT, trans-resveratrol-3-O-(6′-O-octanoyl)-β-D-glucopyranoside] | clear reduction | best results | greater anti-adhesion efficacy |
